Tested on: allergic peritonitis
Assay: Allergic peritonitis induced with ragweed pollen extract (peritoneal exudate cells)
Assay type: in vivo, Balb/c mice
Settings: ragweed pollen extract challenge; 30 mg/kg i.p. 5 minutes prior to induction, 3, 6 and 12 hours post-induction; 24 hours after induction
Method: Each efficacy on allergic peritonitis was examined according to methods as disclosed in Ouchi et al., "Seibutsu Yakukagaku Jikken Koza, Ensho To Allergy (Inflammation and Allergy) I-3", pp.139 to 151, Hirokawa Publishing Co., Japan and Spicer et al., The International Archives of Allergy and Applied Immunology, 81: 81 to 84, 1986.
A ragweed (Ambrosia artemisiaefolia) pollen extract (1:100, Torii Pharmaceutical Co., Ltd.) was diluted 10-fold with physiological saline and administered subcutaneously to male Balb/c mice (7 weeks old, 20 to 23 g, purchased from JAPAN SLC, Inc.) on Days 0 and 1 at a single dose of 0.1 mL and further on Days 6, 8 and 14 at a single dose of 0.2 mL for sensitization. On Day 20 after the initial sensitization, an antigen solution for induction (a mixture of the aforementioned 10-fold diluted ragweed pollen extract, 50 units/mL of penicillin G potassium, and 0.05 mg/mL of streptomycin sulfate) was administered intraperitoneally to each animal at a dose of 0.2 mL to raise allergic peritonitis. […]
Twenty four hours after induction, mice were sacrificed under ether […] and each penitoneal cavity was lavaged twice or thrice with a washout medium (total volume: 5 mL, physiological saline containing 10 units/mL of heparin). […] The retrieved washout medium was measured for its yield (mL) and the number of exudate cells therein by using Turk solution and counting on a haemocytometer and a total number of PEC was calculated. […] After staining, PEC was subjected to fractional counts under a microscope with classification into eosinophils, neutrophils, lymphocytes/macrophages and basophils based on their form and stain nature (more than 500 PEC per specimen were randomly counted). […] After counting, intraperitoneal exudation inhibition rates were calculated by the following formula and expressed as the therapeutic efficacies: Inhibition Rate (%) =[1 -((PEC in Sensitized/Drug-Treated Mouse) - (PEC in Unsensitized/Saline-Treated Mouse))/((PEC in Sensitized/Saline-Treated Mouse) - (PEC in Unsensitized/Saline-Treated Mouse))]× 100 [formula]

## CNC(=O)[C@H](Cc1ccc(NC(=N)N)cc1)NC(=O)[C@H](CC(C)C)C(CCCc1ccccc1)C(=O)NO (single isomer, unassigned) [Compound No. 130, N-[4-(N-Hydroxyamino)-2(R)-isobutyl-3(R or S)-(3-phenyltrimethylene)succinyl)-L-4'-guanidophenylalanine-N-methylamide 1 acetate]
  decrease in total PEC number: 143.8%
  inhibition of infiltration of eosinophils into the peritoneal cavity: 57.2%
  inhibition of infiltration of lymphocytes/macrophages into the peritoneal cavity: 219.0%
